Measured values taken from patent US20240239801A1, “PYRIMIDO[5,4,D]PYRIMIDINE COMPOUNDS, COMPOSITIONS COMPRISING THEM AND USES THEREOF” (Université de Montréal, priority 2021, published 2024).

Assays:
HCT116 pERK = assay: Phospho-ERK inhibition, AlphaLISA SureFire Ultra p-ERK 1/2; type: cell-based, human; conditions: Table 3; for IC50: 1 h treatment; for HCT116 (Ymin %): lowest value of the pERK IC50 curve
Experimental: (§1) All cancer cell lines (A375, A101D, A2058, RKO, HT29 SK-MEL 30, IPC298, HepG2, HCT-116, Lovo, SW620, SW480, NCI-H358, NCI-H2122, Calu-6, NCIH2087, NCIH1755, NCIH1666 and Mewo) were obtained from ATCC and cultured in RPMI-1640 medium (Gibco) supplemented with 5% heat inactivated fetal bovine serum (FBS, Wisent) at 37° C. under 5% CO2. Cells were maintained in T175 flasks (Greiner). They were passaged by removing the culture medium, washing once in 10 mL of room temperature Phosphate Buffered Saline (PBS; Wisent) and incubating at 37° C. with 2 mL of 0.05% Trypsin (Thermo-Fisher). Trypsin was then inactivated by adding complete growth medium and the cells were then replated in a T175 culture dish at the appropriate dilution. All cell lines were routinely tested for mycoplasma contamination. Tissue type and mutational status of each cell line can be found in Table B.
(§2) AlphaLISA® SureFire® Ultra™ p-ERK ½ (Thr202/Tyr204) analysis was conducted on cells plated in 100 μL of complete RPMI-1640 growth medium in 96-well flat-bottomed transparent dishes (Costar) at a density indicated in Table C. Cells were maintained overnight at 37° C. under 5% CO2 before treatment with compounds' dilution series for one hour. The cell density in cells/cm^2 corresponds to cell number divided by the area of one well of a 96-well plate ([…]).
(§3) In a dilution series 100 μL/well of test substance dilution prepared in complete RPMI-1640 growth media was added to the cells. The dilution series is selected so that ten concentrations cover a range from 30 μM or 10 μM to 0.33 nM. If necessary, the initial concentration of 10 μM is increased to 100 μM or lowered to 1 μM (as in the case of A375 and NCIH1666 cells, which are generally more sensitive to the compounds) and further dilution is carried out accordingly. The final concentration of DMSO in the assay is set at 0.5%.
(§4) After treatment, media was removed, and cells were lysed in 50 μL of 1× AlphaScreen Ultra Lysis Buffer (Perkin Elmer). The AlphaLISA® SureFire® Ultra™ p-ERK ½ (Thr202/Tyr2O4) (PerkinElmer) reactions were performed with 5 μL of cell lysate according to the manufacturer's specifications in 384-well proxyplates (Perkin Elmer) followed by overnight incubation of the reactions at room temperature in a humidified chamber. After completion of the reactions, the signals were recorded on an EnVision plate reader (Perkin Elmer) using built in AlphaLISA® settings.
(§5) The effect of each compound dilution on the pERK signal was expressed in % inhibition and calculated as follows. An internal 100% inhibition control (1 μM trametinib, cat. No. HY-10999; MedChem Express; CAS No. 871700-17-3) was included in each plate and used as a measure of pERK background. First, the value obtained for trametinib was subtracted from each data point. The average of DMSO (vehicle) controls (set as 0% inhibition) was established and used to calculate % inhibition:
(§6) The ability of each compound to inhibit pERK signal was expressed as an IC50 value obtained by plotting the inhibition values for each data point of a dilution series and fitting the obtained curves using a log(agonist) versus response−variable slope (four parameters) function using GraphPadPrism (V7.0).
(§7) When present, paradoxical pERK induction is inferred from the negative % inhibition values observed in the pERK IC50 curves of a compound.

SW480 pERK = assay: as above; type: cell-based, human; conditions: Table 3; for IC50: 1 h treatment, read-out: SW480 PERK IC50; for SW480 (Ymin %): lowest value of the pERK IC50 curve
Experimental: as §1, §2, §3, §4, §5, §6, §7

| Structure (SMILES) | IC50 (HCT116 pERK) [µM] | IC50 (SW480 pERK) [µM] | HCT116 (Ymin %) (HCT116 pERK) [%] | SW480 (Ymin %) (SW480 pERK) [%] |
| --- | --- | --- | --- | --- |
| COc1ccc(S(=O)(=O)Nc2ccc(F)c(Nc3ncnc4cnc(-n5cnc6ccccc65)nc34)c2F)cc1 [Example 36] | 1 to 10 | 1 to 10 | 10 | 10 |
| COc1ccc(S(=O)(=O)Nc2ccc(F)c(Nc3ncnc4cnc(-n5cc(C)nc5C)nc34)c2F)cc1 [Example 37] | 1 to 10 | 1 to 10 | −5 | −6 |
| COc1ccc(S(=O)(=O)Nc2ccc(F)c(Nc3ncnc4cnc(N5CC[C@H](F)C5)nc34)c2F)c(F)c1 [Example 44] | 1 to 10 | 1 to 10 | −2 | 12 |
| COc1ccc(S(=O)(=O)Nc2ccc(F)c(Nc3ncnc4cnc(-n5cnc6ccccc65)nc34)c2F)c(F)c1 [Example 45] | 1 to 10 | 1 to 10 | 11 | −8 |
| COc1ccc(S(=O)(=O)Nc2ccc(F)c(Nc3ncnc4cnc(OC)nc34)c2F)cc1 [Example 46] | 10 to 30 | 10 to 30 | 8 | 12 |
| COc1ccc(S(=O)(=O)Nc2ccc(F)c(Nc3ncnc4cnc(N5CC(F)(F)C5)nc34)c2F)cc1 [Example 48] | 1 to 10 | 1 to 10 | 13 | 6 |
| COc1ccc(S(=O)(=O)Nc2ccc(F)c(Nc3ncnc4cnc(Oc5cccc(C#N)c5)nc34)c2F)cc1 [Example 49] | 10 to 30 | 10 to 30 | 8 | −9 |
| COc1ccc(S(=O)(=O)Nc2ccc(F)c(Nc3ncnc4cnc(Oc5cccc(N)c5)nc34)c2F)cc1 [Example 54] | 10 to 30 | 10 to 30 | −7 | 8 |
| COc1ccc(S(=O)(=O)Nc2ccc(F)c(Nc3ncnc4cnc(-n5cnc6ccccc65)nc34)c2F)c(C)c1 [Example 55] | 1 to 10 | 1 to 10 | −4 | −2 |
| CO[C@@H]1CCN(S(=O)(=O)Nc2ccc(F)c(Nc3ncnc4cnc(N5CC[C@H](F)C5)nc34)c2F)C1 [Example 60] | 1 to 10 | 1 to 10 | 9 | 15 |
| O=S(=O)(Nc1ccc(F)c(Nc2ncnc3cnc(-n4cnc5ccccc54)nc23)c1F)c1ccc2c(c1)CCO2 [Example 64] | 1 to 10 | 1 to 10 | 2 | 19 |

Second part, led by results:

| IC50 (HCT116 pERK) [µM] | IC50 (SW480 pERK) [µM] | Structure (SMILES) | HCT116 (Ymin %) (HCT116 pERK) [%] | SW480 (Ymin %) (SW480 pERK) [%] |
| --- | --- | --- | --- | --- |
| 10 to 30 | 10 to 30 | COc1ccc(S(=O)(=O)Nc2ccc(F)c(Nc3ncnc4cnc(N5CC[C@@H](F)C5)nc34)c2F)cc1 [Example 38] | −1 | −3 |
| 10 to 30 | 10 to 30 | COc1ccc(S(=O)(=O)Nc2ccc(F)c(Nc3ncnc4cnc(N5CCC(F)(F)C5)nc34)c2F)cc1 [Example 39] | 5 | −3 |
| 1 to 10 | 1 to 10 | COc1ccc(S(=O)(=O)Nc2ccc(F)c(Nc3ncnc4cnc(-n5cnc(C)c5C)nc34)c2F)cc1 [Example 40] | 12 | −7 |
| 10 to 30 | 10 to 30 | COc1ccc(S(=O)(=O)Nc2ccc(F)c(Nc3ncnc4cnc(N5CCC(O)C5)nc34)c2F)cc1 (stereo not drawn) [Example 41] | 13 | 6 |
| 10 to 30 | 10 to 30 | COc1ccc(S(=O)(=O)Nc2ccc(F)c(Nc3ncnc4cnc(N5CCC(O)C5)nc34)c2F)cc1 (stereo not drawn) [Example 42] | −2 | 11 |
| 10 to 30 | 10 to 30 | COc1ccc(S(=O)(=O)Nc2ccc(F)c(Nc3ncnc4cnc(N5CCC5)nc34)c2F)cc1 [Example 43] | 11 | 0 |
| 1 to 10 | 1 to 10 | COc1ccc(S(=O)(=O)Nc2ccc(F)c(Nc3ncnc4cnc(N5CC(F)C5)nc34)c2F)cc1 [Example 47] | 6 | −1 |
| 1 to 10 | 1 to 10 | COc1ccc(S(=O)(=O)Nc2ccc(F)c(Nc3ncnc4cnc(N5CC(F)(F)C5)nc34)c2F)c(F)c1 [Example 50] | 8 | −9 |
| 1 to 10 | 1 to 10 | COc1ccc(S(=O)(=O)Nc2ccc(F)c(Nc3ncnc4cnc(N5CC(F)C5)nc34)c2F)c(F)c1 [Example 52] | −4 | −8 |
| 1 to 10 | 1 to 10 | COc1ccc(S(=O)(=O)Nc2ccc(F)c(Nc3ncnc4cnc(-n5cnc(C)c5C)nc34)c2F)c(F)c1 [Example 53] | 15 | −4 |
| 1 to 10 | 1 to 10 | COc1ccc(S(=O)(=O)Nc2ccc(F)c(Nc3ncnc4cnc(-n5cnc(C)c5C)nc34)c2F)c(C)c1 [Example 56] | −10 | 4 |
| 0.5 to 1 | 0.5 to 1 | CO[C@@H]1CCN(S(=O)(=O)Nc2ccc(F)c(Nc3ncnc4cnc(-n5cnc6ccccc65)nc34)c2F)C1 [Example 59] | 11 | 2 |
| 1 to 10 | 1 to 10 | O=S(=O)(Nc1ccc(F)c(Nc2ncnc3cnc(N4CC[C@H](F)C4)nc23)c1F)c1ccc(Cl)cc1Cl [Example 61] | 11 | 9 |
| 1 to 10 | 1 to 10 | Cc1ncn(-c2ncc3ncnc(Nc4c(F)ccc(NS(=O)(=O)c5ccc6c(c5)CCO6)c4F)c3n2)c1C [Example 65] | 4 | 5 |
| 10 to 30 | 1 to 10 | O=S(=O)(Nc1ccc(F)c(Nc2ncnc3cnc(N4CC[C@H](F)C4)nc23)c1F)c1ccc2c(c1)CCO2 [Example 66] | 10 | 0 |
| 1 to 10 | 1 to 10 | CO[C@@H]1CCN(S(=O)(=O)Nc2ccc(F)c(Nc3ncnc4cnc(N5Cc6ccccc6C5)nc34)c2F)C1 [Example 67] | 6 | 18 |
